# “And” between values parts separate entries of the source, which are not always exact repeats. Equal entries are not always repeated.
# Key:
# [1] = biological target: T1, human LAT1 (Homo sapiens, UniProt Q01650); assay: Inhibition of L-[14C]leucine uptake in HEK293-hLAT1 cells; assay type: cell-based; conditions: for Inhibition of LAT1-mediated L-[14C]leucine uptake (in words, rank order): 1 μM L-[14C]leucine, 1 min, compounds at 10, 30, 100 μM; for Ki: L-[14C]leucine uptake, HEK293-hLAT1, mean ± S.E.M., n = 3–4, read-out: Ki (μM) LAT1; for Ki ratio (LAT2/LAT1): LAT1 selectivity, LAT2 Ki over LAT1 Ki
# T1 construct: expressed in transfected cells
# Source text: (§1) In this study, we used the HEK293 cells stably expressing human LAT1 or human LAT2, which form a heterodimeric complex with endogenous 4F2hc (CD98hc), required for plasma membrane localization. We first explored the impact of halogen group positioning in the benzene ring of Phe (Fig. 1) on its interaction with LAT1 and LAT2. […] We conducted inhibition experiments to measure the uptake of L-[^14C]leucine by LAT1 and L-[^14C]alanine by LAT2 in the presence or absence of Phe derivatives with an iodo group at position 2, 3, or 4 in the benzene ring.
# (§2) The inhibition experiments were performed as described previously. HEK293-hLAT1 (1.5 × 10^5 cells/well) or HEK293-hLAT2 (2 × 10^5 cells/well) cells were plated onto poly-D-lysine-coated 24-well plates (Corning, New York, USA). Following a 2-day culture period, the uptake of 1 μM L-[^14C]leucine or L-[^14C]alanine was measured for 1 min in the absence or presence of non-radiolabeled test compounds at concentrations of 10, 30, and 100 μM. Radioactivity was quantified using a β-scintillation counter (LSC-3100; Aloka, Tokyo, Japan), and protein concentrations were determined with a Micro BCA Protein Assay Kit (Thermo Fisher Scientific, Rockford, IL). To calculate Ki values, the concentration-dependent uptake of L-[^14C]leucine or L-[^14C]alanine was analyzed in the presence and absence of test compounds[49]. The data were plotted against substrate concentration and fitted to Michaelis–Menten kinetics. Ki values were derived using nonlinear regression analysis with the enzyme kinetics inhibition module in GraphPad Prism software (Version 10.0.2; GraphPad Software Inc., San Diego, CA, USA).
# [2] = biological target: T2, human LAT2 (Homo sapiens, UniProt Q9UHI5); assay: Inhibition of L-[14C]alanine uptake in HEK293-hLAT2 cells; assay type: cell-based; conditions: for Inhibition of LAT2-mediated L-[14C]alanine uptake (in words, rank order): 1 μM L-[14C]alanine, 1 min, compounds at 10, 30, 100 μM; for Ki: L-[14C]alanine uptake, HEK293-hLAT2, mean ± S.E.M., n = 3–4, read-out: Ki (μM) LAT2
# T2 construct: expressed in transfected cells
# T2 sequence (Q9UHI5 1-535): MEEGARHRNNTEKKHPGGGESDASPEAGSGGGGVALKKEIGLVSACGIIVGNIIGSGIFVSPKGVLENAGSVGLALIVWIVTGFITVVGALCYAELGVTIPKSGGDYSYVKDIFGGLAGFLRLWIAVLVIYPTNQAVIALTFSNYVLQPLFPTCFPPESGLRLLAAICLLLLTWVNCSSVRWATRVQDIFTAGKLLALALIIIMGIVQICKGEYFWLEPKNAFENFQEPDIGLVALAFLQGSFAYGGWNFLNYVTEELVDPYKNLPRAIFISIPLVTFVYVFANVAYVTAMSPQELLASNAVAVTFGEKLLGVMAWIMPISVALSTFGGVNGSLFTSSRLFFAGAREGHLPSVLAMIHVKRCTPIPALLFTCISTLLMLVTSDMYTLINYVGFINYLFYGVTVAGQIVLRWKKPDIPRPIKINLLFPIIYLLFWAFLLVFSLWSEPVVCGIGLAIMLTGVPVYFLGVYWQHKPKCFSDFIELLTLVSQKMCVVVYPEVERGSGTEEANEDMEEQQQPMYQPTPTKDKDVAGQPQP
# T2 sequence (P08195 1-529 partner): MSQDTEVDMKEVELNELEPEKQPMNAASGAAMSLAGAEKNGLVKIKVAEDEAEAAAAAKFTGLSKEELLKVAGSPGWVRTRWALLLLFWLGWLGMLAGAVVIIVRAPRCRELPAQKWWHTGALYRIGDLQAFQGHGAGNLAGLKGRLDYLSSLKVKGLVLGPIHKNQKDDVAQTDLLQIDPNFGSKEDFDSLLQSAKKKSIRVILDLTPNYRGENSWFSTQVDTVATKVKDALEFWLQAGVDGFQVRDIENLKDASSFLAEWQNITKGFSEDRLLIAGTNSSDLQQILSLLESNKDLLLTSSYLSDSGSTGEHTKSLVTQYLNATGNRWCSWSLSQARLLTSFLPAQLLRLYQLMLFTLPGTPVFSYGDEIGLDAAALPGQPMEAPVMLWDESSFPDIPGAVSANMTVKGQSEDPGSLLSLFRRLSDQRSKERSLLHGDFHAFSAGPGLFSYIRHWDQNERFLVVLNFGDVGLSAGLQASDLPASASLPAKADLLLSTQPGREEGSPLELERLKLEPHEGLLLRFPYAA
# Source text: as §1, §2
# [3] = biological target: T1, human LAT1; assay: Efflux of pre-loaded L-[14C]leucine from HEK293-hLAT1 cells induced by extracellular compounds; assay type: cell-based; conditions: for Km / Vmax of efflux (% radioactivity/min): LAT1, L-[14C]leucine efflux, mean ± S.E.M., n = 3; for Km / Vmax of efflux (% radioactivity/min) / LAT1-mediated L-[14C]leucine efflux induced (in words): 1 min; for LAT1-mediated L-[14C]leucine efflux induced (in words): compounds at 10, 30, 100 μM
# Method: (§3) We evaluated the efflux of pre-loaded L-[^14C]leucine from LAT1 and pre-loaded L-[^14C]alanine from LAT2 induced by extracellularly applied compounds.
# (§4) Efflux experiments were performed as described previously. Cells cultured 48 h were pre-loaded with 5 μM L-[^14C]leucine or L-[^14C]alanine for 10 min at 37 °C. The cells were then washed, and the efflux was induced by incubating cells for 1 min in either the absence or presence of non-radiolabeled test compounds at indicated concentrations. The efflux time of 1 min fell within the linear range of time-dependent substrate efflux mediated by LAT1 and LAT2 (Supplementary Fig. S2). Following incubation, the medium was collected and radioactivity was measured in both the medium and the cells. Efflux was quantified as the percentage of radioactivity released into the medium, calculated using the formula: radioactivity of medium/(radioactivity of medium + radioactivity of cells) × 100%.
# (§5) The kinetic parameters for the efflux of L-[^14C]leucine or L-[^14C]alanine induced by various concentrations of extracellularly-applied test compounds were analyzed. The baseline efflux values—those obtained in the absence of test compounds—were subtracted from the values measured in the presence of the compounds. The resultant data were fitted to Michaelis–Menten kinetics to determine the Km and Vmax by nonlinear regression analysis using “enzyme kinetics-velocity as a function of substrate” module within GraphPad Prism software.
# [4] = biological target: T2, human LAT2; assay: Efflux of pre-loaded L-[14C]alanine from HEK293-hLAT2 cells induced by extracellular compounds; assay type: cell-based; conditions: for Vmax of efflux (% radioactivity/min): LAT2, L-[14C]alanine efflux, mean ± S.E.M., n = 3; for Vmax of efflux (% radioactivity/min) / LAT2-mediated L-[14C]alanine efflux induced (in words): 1 min; for LAT2-mediated L-[14C]alanine efflux induced (in words): compounds at 10, 30, 100 μM
# Method: as §3, §4, §5
# [5] = design: method as in PMID 11901210; conditions: correlated with LAT1 Ki; cited from earlier work
# T1 sequence (Q01650 whole entry, one chain of several): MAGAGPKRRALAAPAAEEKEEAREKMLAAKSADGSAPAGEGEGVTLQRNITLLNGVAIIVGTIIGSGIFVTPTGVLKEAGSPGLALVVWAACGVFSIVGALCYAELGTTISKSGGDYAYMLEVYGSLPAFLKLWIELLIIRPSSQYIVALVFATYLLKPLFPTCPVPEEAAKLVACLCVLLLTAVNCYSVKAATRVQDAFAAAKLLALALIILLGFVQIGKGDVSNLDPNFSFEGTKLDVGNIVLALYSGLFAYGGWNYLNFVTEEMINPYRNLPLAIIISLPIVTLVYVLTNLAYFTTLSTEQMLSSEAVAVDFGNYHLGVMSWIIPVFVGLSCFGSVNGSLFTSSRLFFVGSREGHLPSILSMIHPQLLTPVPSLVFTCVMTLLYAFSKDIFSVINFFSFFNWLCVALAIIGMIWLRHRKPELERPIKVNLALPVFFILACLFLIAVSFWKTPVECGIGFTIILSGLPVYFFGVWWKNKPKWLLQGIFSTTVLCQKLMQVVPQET
smiles,measurement,setting,value
N[C@@H](Cc1ccccc1Br)C(=O)O [2-Br-Phe],"Inhibition of LAT1-mediated L-[14C]leucine uptake (in words, rank order)",[1],2-Cl-Phe < 2-Br-Phe
N[C@@H](Cc1ccccc1Cl)C(=O)O [2-Cl-Phe],"Inhibition of LAT1-mediated L-[14C]leucine uptake (in words, rank order)",[1],Phe < 2-Cl-Phe
N[C@@H](Cc1ccccc1F)C(=O)O [2-F-Phe],"Inhibition of LAT1-mediated L-[14C]leucine uptake (in words, rank order)",[1],2-F-Phe = Phe
"N[C@@H](Cc1ccccc1I)C(=O)O [2-I-Phe, 2-iodo-L-phenylalanine]","Inhibition of LAT1-mediated L-[14C]leucine uptake (in words, rank order)",[1],markedly inhibited and 2-Br-Phe < 2-I-Phe and inhibit
same,Ki,[1],9.56 ± 1.67 µM
same,Ki ratio (LAT2/LAT1),[1],9.16
same,"Inhibition of LAT2-mediated L-[14C]alanine uptake (in words, rank order)",[2],2-I-Phe = Phe
same,Ki,[2],87.6 ± 11.9 µM
same,Km,[3],2.79 ± 0.76 µM
same,Vmax of efflux (% radioactivity/min),[3],7.62 ± 0.30 % radioactivity/min
same,LAT1-mediated L-[14C]leucine efflux induced (in words),[3],transported by LAT1 as substrates
same,Vmax of efflux (% radioactivity/min),[4],39.65 ± 0.44 % radioactivity/min
same,LAT2-mediated L-[14C]alanine efflux induced (in words),[4],comparable to that of Phe
"N[C@@H](Cc1cccc(Br)c1)C(=O)O [3-Br-Phe, 3-Bromo-L-phenylalanine]","Inhibition of LAT1-mediated L-[14C]leucine uptake (in words, rank order)",[1],3-Cl-Phe < 3-Br-Phe
same,"Inhibition of LAT2-mediated L-[14C]alanine uptake (in words, rank order)",[2],3-Cl-Phe < 3-Br-Phe
N[C@@H](Cc1cccc(Cl)c1)C(=O)O [3-Cl-Phe],"Inhibition of LAT1-mediated L-[14C]leucine uptake (in words, rank order)",[1],3-F-Phe < 3-Cl-Phe
same,"Inhibition of LAT2-mediated L-[14C]alanine uptake (in words, rank order)",[2],3-F-Phe < 3-Cl-Phe
N[C@@H](Cc1cccc(F)c1)C(=O)O [3-F-Phe],"Inhibition of LAT1-mediated L-[14C]leucine uptake (in words, rank order)",[1],Phe < 3-F-Phe
same,"Inhibition of LAT2-mediated L-[14C]alanine uptake (in words, rank order)",[2],Phe < 3-F-Phe
N[C@@H](Cc1cccc(I)c1)C(=O)O [3-I-Phe],"Inhibition of LAT1-mediated L-[14C]leucine uptake (in words, rank order)",[1],markedly inhibited and 3-Br-Phe < 3-I-Phe
same,"Inhibition of LAT2-mediated L-[14C]alanine uptake (in words, rank order)",[2],4-I-Phe < 3-I-Phe and 3-Br-Phe < 3-I-Phe
N[C@@H](Cc1ccc(I)cc1)C(=O)O [4-I-Phe],"Inhibition of LAT1-mediated L-[14C]leucine uptake (in words, rank order)",[1],comparable to that of Phe
same,"Inhibition of LAT2-mediated L-[14C]alanine uptake (in words, rank order)",[2],Phe < 4-I-Phe
N[C@@H](Cc1ccc(O)c(O)c1)C(=O)O [L-DOPA],Carbonyl oxygen charge,[5],−0.5633
"N[C@@H](Cc1ccccc1)C(=O)O [Phe, phenylalanine]","Inhibition of LAT1-mediated L-[14C]leucine uptake (in words, rank order)",[1],inhibit
same,Ki,[1],43.5 ± 6.28 µM
same,Ki ratio (LAT2/LAT1),[1],2.53
same,Ki,[2],110 ± 20 µM
same,Km,[3],8.92 ± 1.08 µM
same,Vmax of efflux (% radioactivity/min),[3],13.32 ± 0.31 % radioactivity/min
same,Ratio to Vmax of Phe,[3]; LAT1 efflux,(1.00)
same,LAT1-mediated L-[14C]leucine efflux induced (in words),[3],induced a notable efflux
same,Vmax of efflux (% radioactivity/min),[4],39.60 ± 0.74 % radioactivity/min
same,Ratio to Vmax of Phe,[4]; LAT2 efflux,(1.00)
"N[C@H](C(=O)O)c1ccccc1 [Phg, L-phenylglycine]","Inhibition of LAT1-mediated L-[14C]leucine uptake (in words, rank order)",[1],inhibit
same,Ki,[1],96.8 ± 13.2 µM
same,Ki ratio (LAT2/LAT1),[1],2.50
same,"Inhibition of LAT2-mediated L-[14C]alanine uptake (in words, rank order)",[2],minimal inhibition
same,Ki,[2],242 ± 20.8 µM
N[C@@H](Cc1ccc(O)cc1)C(=O)O [Tyr],Carbonyl oxygen charge,[5],−0.5635
C[C@](N)(Cc1ccc(O)c(O)c1)C(=O)O [α-methyl-DOPA],Carbonyl oxygen charge,[5],−0.5558
"C[C@](N)(Cc1ccccc1)C(=O)O [α-methyl-Phe, α-Methyl-L-phenylalanine, reference compound]","Inhibition of LAT1-mediated L-[14C]leucine uptake (in words, rank order)",[1],inhibit
same,Ki,[1],157 ± 19.5 µM
same,Ki ratio (LAT2/LAT1),[1],10.74
same,"Inhibition of LAT2-mediated L-[14C]alanine uptake (in words, rank order)",[2],minimal inhibition
same,Ki,[2],1680 ± 272 µM
same,Km,[3],67.9 ± 7.39 µM
same,Vmax of efflux (% radioactivity/min),[3],15.45 ± 0.45 % radioactivity/min
same,LAT1-mediated L-[14C]leucine efflux induced (in words),[3],transported by LAT1 as substrates
same,Vmax of efflux (% radioactivity/min),[4],27.28 ± 0.70 % radioactivity/min
same,LAT2-mediated L-[14C]alanine efflux induced (in words),[4],not efficiently transported by LAT2
C[C@](N)(Cc1ccc(O)cc1)C(=O)O [α-methyl-Tyr],Carbonyl oxygen charge,[5],−0.5579

# — publication PMC10897196, “Structure–activity characteristics of phenylalanine analogs selectively transported by L-type amino acid transporter 1 (LAT1)” (Scientific Reports, 2024)
